Source: patent US20240150396A1 (The Texas A&M University System, priority 2021, published 2024)
Values joined by “and” are separate entries in the source; they are usually repeats but may differ in a detail not shown here. Identical values can stand only once. Like-named read-outs stand apart in the source and are kept apart here. Non-standard residues stand in square brackets, D forms with d. Residues, ends and D or L forms follow the SMILES beside them. *: point of attachment. hPhe = N[CH](CCc1ccccc1)C(=O)O; 4Pal = N[C@@H](Cc1ccncc1)C(=O)O; AMC = Cc1cc(=O)oc2cc(N*)ccc12; Cbz = O=C(OCc1ccccc1)*

Experiments:
cruzain [1] = target: T1, cruzain (Trypanosoma cruzi, UniProt P25779); experiment: Kinetic parameters of peptide substrates for cruzain; type: biochemical; conditions: for Km / kcat / kcat/Km: pH 7.5, 25° C., 10% DMSO; for kcat rel: relative to Cbz-Phe-Arg-AMC
T1 sequence (P25779 123-467 limits assumed): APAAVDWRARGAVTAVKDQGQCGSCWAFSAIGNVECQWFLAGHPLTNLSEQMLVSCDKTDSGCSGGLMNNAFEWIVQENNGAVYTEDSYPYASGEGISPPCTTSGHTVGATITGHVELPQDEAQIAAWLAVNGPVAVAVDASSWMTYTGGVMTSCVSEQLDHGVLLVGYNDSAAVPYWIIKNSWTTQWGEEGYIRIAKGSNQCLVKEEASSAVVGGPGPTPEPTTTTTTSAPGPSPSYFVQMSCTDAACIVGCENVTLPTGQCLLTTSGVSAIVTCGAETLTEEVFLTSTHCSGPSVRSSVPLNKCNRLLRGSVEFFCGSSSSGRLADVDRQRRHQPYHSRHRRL
Description: (§1) All enzyme assays were performed at 25° C. Initial rates of the peptidolytic reaction catalyzed by cruzain were measured by monitoring the fluorescence generated by cleavage of the dipeptide-AMC bond. Assays were conducted in 96-well plates (Greiner; flat-bottom, clear black plates) in a total volume of 250 μL, containing either 50 mM MES (pH 7.5), 50 mM TAPSO, 100 mM DEA, 1 mM CHAPS, 1 mM Na2EDTA, 5 mM DTT, and 10% DMSO (v/v) or 50 mM sodium acetate (pH 5.5), 50 mM MES, 100 mM TEA, 1 mM CHAPS, 1 mM Na2EDTA, 5 mM DTT, and 10% DMSO (v/v). Substrates were dissolved in 100% DMSO and were then diluted 10-fold such that when added to reaction mixtures, final DMSO concentration was 10% (v/v). Reactions were initiated with the addition of 1-10 μL of cruzain (final concentrations: 0.1-3.0 nM (preincubation studies)). Fluorescence was measured on either a SpectraMax M5 (Molecular Devices) or a Synergy HTX (BioTek, Winooski, VT) microplate reader (λex=360 nm, λem=460 nm). Initial rates were determined from continuous kinetic time courses and calculated from the earliest time points, typically at less than 10 min.
Initial velocity data for cruzain-catalyzed reactions of fluorogenic peptide substrates were determined by fitting to eq 1 using GraphPad Prism 6.0 or SigmaPlot 12.0. For eq 1, kcat is the turnover number, [E]t is the concentration of active sites of cruzain, and Ka is the Michaelis constant for the substrate A. Cruzain concentrations were determined by spectrophotometric analysis of purified sample solutions as described.^44

cruzain [2] = target: T1, cruzain; experiment: biochemical; conditions: pH 7.5; for kinact/KI: irreversible inactivation
Description: as §1, with “Reactions were initiated with the addition of 1-10 μL of cruzain (final concentrations: 0.1-3.0 nM (preincubation studies)).” left out
(2) Enzyme and compound were preincubated over extended periods of time, and then aliquots were removed and diluted 50-fold to 100-fold into reaction mixtures containing 10 μM Cbz-Phe-Arg-AMC, followed by the assessment of the resulting time courses.
Data for time-dependent inhibition were fitted by several methods.
Values of kobs versus [inhibitor] were then replotted and fitted to eq 4 for which k3 and k4 represent the respective rates of formation and dissolution of the EI* complex as depicted in FIG. 9.
In addition, time-course data were fitted globally by two methods. First, expressions for vs, vi, and kobs were substituted into eq 3 to generate eq 6, which was used to fit time-course data at all concentrations of inhibitors simultaneously. Second, time-course data were fitted using KinTek Explorer as either a single-binding step model with the two kinetic parameters k3/Ki and k4 or a two-step binding mechanism as shown in FIG. 9 from which rate constants k1-k4 are determined (Supporting Information).
Enzyme Assays. The preparation of cruzain and 3CL^pro were described in previous publications.^8, 34 The evaluation of inhibitors was modified from our lab protocol and described briefly as follows.^35 All enzyme assays were conducted in 96-well, clear bottom, black plates at 25° C., and fluorescence emanating from product formation was measured using either a SpectraMax M5 (Molecular Devices) or a Synergy HTX (Biotek) microplate reader, with excitation at λex=360 nm and emission at λem=460 nm. […] Reactions were started with addition of enzyme (typically, to a final concentration of 0.2 nM for cruzain or 40 nM for 3CL^pro), and the time courses were recorded for 0.5-1 h.
Kinetic Data Analysis. All time-course data were fitted to eq. 1, wherein P is the fluorescence generated by formation of AMC or liberated ACC, C is the background constant, vi and vs are respectively initial-state and steady-state reaction rates, t is time, and kobs is the observed rate of conversion of the initial inhibited rate to the final inhibited rate.^46
Overall inhibition constants (Ki* values) were obtained by fitting vs/v0 to eq. 4, wherein vs and v0 are steady-state reaction rates in the presence and absence of inhibitor respectively, [S] and [I] represent the fixed concentration of substrate and variable inhibitor, Km is the Michaelis constant of the substrate.

[3] = apparent tight-binding inhibition constant, 25° C., read-out: Ki*
[4] = obtained >10 minutes following initiation of reaction by addition of enzyme, read-out: Ki* Cruzain
[5] = apparent initial inhibition constant, 25° C., read-out: Ki

## Cc1cc(=O)oc2cc(NC(=O)C(CCc3ccccc3)NC(=O)C(CC(C)C)NC(=O)OCc3ccccc3)ccc12 (stereo not drawn) [Compound S3, Cbz-Leu-hPhe-AMC] (Cbz-Leu-[hPhe]-{AMC}; configuration not given here)
Cruzain [1]
  Km: 0.8 ± 0.2 µM
  kcat: 3.0 ± 0.2 s⁻¹
  kcat/Km: 4e+06 ± 1e+06 M⁻¹ s⁻¹
  kcat rel: 0.21

## Cc1cc(=O)oc2cc(NC(=O)[C@H](Cc3ccccc3)NC(=O)[C@H](Cc3ccccc3)NC(=O)N3CCN(C)CC3)ccc12 [Compound S11, NMePip-Phe-Phe-AMC]
Cruzain [1]
  Km: 14 ± 4 µM
  kcat: 2.8 ± 0.06 s⁻¹
  kcat/Km: 200000 ± 40000 M⁻¹ s⁻¹
  kcat rel: 0.29

## Cc1cc(=O)oc2cc(NC(=O)[C@H](CCCN=C(N)N)NC(=O)[C@H](CC(C)C)NC(=O)OCc3ccccc3)ccc12 [Compound S4, Cbz-Leu-Arg-AMC]
Cruzain [1]
  Km: 2.2 ± 0.3 µM
  kcat: 8.4 ± 0.4 s⁻¹
  kcat/Km: 3.8e+06 ± 700000 M⁻¹ s⁻¹
  kcat rel: 0.88

## Cc1cc(=O)oc2cc(NC(=O)C(CCc3ccccc3)NC(=O)C(CCCN=C(N)N)NC(=O)OCc3ccccc3)ccc12 (stereo not drawn) [Compound S10, Cbz-Arg-hPhe-AMC]
Cruzain [1]
  Km: 6.8 µM
  kcat: 4.9 s⁻¹ and 4.9 ± 0.1 s⁻¹
  kcat/Km: 700000 ± 40000 M⁻¹ s⁻¹
  kcat rel: 0.51

## N—((S)-1-(((2S,3S)-3-hydroxy-1,2,3,4-tetrahydronaphthalen-2-yl)amino)-1-oxo-3-phenylpropan-2-yl)-4-methylpiperazine-1-carboxamide and N—((S)-1-(((2R,3R)-3-hydroxy-1,2,3,4-tetrahydronaphthalen-2-yl)amino)-1-oxo-3-phenylpropan-2-yl)-4-methylpiperazine-1-carboxamide [Compound 50]
Cruzain [2]; [3]
  Ki: > 100 µM
Cruzain [2]; [4]
  Ki: > 100 µM

## O=C(N[C@@H](Cc1ccccc1)C(=O)N[C@H](/C=C/S(=O)(=O)c1ccccc1)Cc1ccccc1)OCc1ccccc1 [Compound 1]
Cruzain [2]; [4]
  Ki: 0.0036 µM

## Cc1cc(=O)oc2cc(NC(=O)[C@H](CCc3ccccc3)NC(=O)[C@H](Cc3ccccc3)NC(=O)OCc3ccccc3)ccc12 [Compound S2, Cbz-Phe-hPhe-AMC] (Cbz-Phe-[hPhe]-{AMC})
Cruzain [1]
  Km: 0.26 ± 0.06 µM
  kcat: 2.0 ± 0.2 s⁻¹
  kcat/Km: 8e+06 M⁻¹ s⁻¹ and 8e+06 ± 2e+06 M⁻¹ s⁻¹
  kcat rel: 0.21

## C[C@@H](/C=C/c1ccccn1)NC(=O)[C@H](Cc1ccccc1)NC(=O)OCc1ccccc1 [Compound 19, Benzyl ((S)-1-Oxo-3-phenyl-1-(((S,E)-4-(pyridin-2-yl)but-3-en-2-yl)amino)propan-2-yl)carbamate]
Cruzain [2]; [3]
  Ki: 4.8 ± 0.2 µM

## CN1CCN(C(=O)N[C@@H](Cc2ccccc2)C(=O)N[C@H](/C=C/C(N)=O)CCc2ccccc2)CC1 [Compound 4, N—((S)-1-(((S,E)-6-Amino-6-oxo-1-phenylhex-4-en-3-yl)amino)-1-oxo-3-phenylpropan-2-yl)-4-methylpiperazine-1-carboxamide]
Cruzain [2]; [5]
  Ki: 3.4 ± 0.4 µM
Cruzain [2]; 25° C.
  kinact/KI: 1900 ± 200 M⁻¹ s⁻¹

## Cc1cc(=O)oc2cc(NC(=O)[C@H](Cc3ccccc3)NC(=O)[C@H](Cc3ccccc3)NC(=O)OCc3ccccc3)ccc12 [Compound S9, Cbz-Phe-Phe-AMC] (Cbz-Phe-Phe-{AMC})
Cruzain [1]
  Km: 0.34 µM
  kcat: 0.26 ± 0.01 s⁻¹
  kcat/Km: 800000 ± 200000 M⁻¹ s⁻¹
  kcat rel: 0.03

## CC(C)C[C@H](NC(=O)OCc1ccccc1)C(=O)N[C@H](/C=C/c1ccccn1)CCc1ccccc1 [Compound 18, Benzyl ((S)-4-Methyl-1-oxo-1-(((S,E)-5-phenyl-1-(pyridin-2-yl)-pent-1-en-3-yl)amino)pentan-2-yl)carbamate]
Cruzain [2]; [5]
  Ki: 7.8 ± 0.6 µM
Cruzain [2]; [3]
  Ki: 1.42 µM

## NC(=O)/C=C/[C@H](Cc1ccccc1)NC(=O)[C@H](Cc1ccccc1)NC(=O)OCc1ccccc1 [Compound 2, Benzyl ((S)-1-(((S,E)-5-Amino-5-oxo-1-phenylpent-3-en-2-yl)-amino)-1-oxo-3-phenylpropan-2-yl)carbamate]
Cruzain [2]; [5]
  Ki: 37 ± 2 µM
Cruzain [2]; 25° C.
  kinact/KI: 22 M⁻¹ s⁻¹ and 21.7 ± 0.8 M⁻¹ s⁻¹

## O=C(N[C@@H](Cc1ccccc1)C(=O)N[C@H](/C=C/c1ccncn1)Cc1ccccc1)OCc1ccccc1 [Compound 23, Benzyl ((S)-1-Oxo-3-phenyl-1-(((S,E)-1-phenyl-4-(pyrimidin-4-yl)-but-3-en-2-yl)amino)propan-2-yl)carbamate]
Cruzain [2]; [5]
  Ki: 10.8 ± 1.4 µM
Cruzain [2]; [3]
  Ki: 1.14 ± 0.07 µM

## O=C(N[C@@H](Cc1ccccc1)C(=O)N[C@H](/C=C/c1ccncc1)Cc1ccccc1)OCc1ccccc1 [Compound 21, Benzyl ((S)-1-Oxo-3-phenyl-1-(((S,E)-1-phenyl-4-(pyridin-4-yl)-but-3-en-2-yl)amino)propan-2-yl)carbamate]
Cruzain [2]; [3]
  Ki: 5.5 ± 0.2 µM

## CN1CCN(C(=O)N[C@@H](Cc2ccccc2)C(=O)N[C@H](/C=C/c2ccccn2)CCc2ccccc2)CC1 [Compound 14, 4-Methyl-N—((S)-1-oxo-3-phenyl-1-(((S,E)-5-phenyl-1-(pyridin-2-yl)pent-1-en-3-yl)amino)propan-2-yl)piperazine-1-carboxamide]
Cruzain [2]; [3]
  Ki: 3.4 µM

## Cc1cc(=O)oc2cc(NC(=O)[C@H](CCc3ccccc3)NC(=O)[C@H](Cc3ccncc3)NC(=O)OCc3ccccc3)ccc12 [Compound S8, Cbz-(4-Pyr)Ala-hPhe-AMC] (Cbz-[4Pal]-[hPhe]-{AMC})
Cruzain [1]
  Km: 4.6 µM
  kcat: 5.3 s⁻¹ and 5.3 ± 0.2 s⁻¹
  kcat/Km: 1.1e+06 ± 100000 M⁻¹ s⁻¹
  kcat rel: 0.55

## NC(=O)/C=C/[C@H](CCc1ccccc1)NC(=O)[C@H](Cc1ccccc1)NC(=O)OCc1ccccc1 [Compound 3, Benzyl ((S)-1-(((S,E)-6-Amino-6-oxo-1-phenylhex-4-en-3-yl)-amino)-1-oxo-3-phenylpropan-2-yl)carbamate]
Cruzain [2]; [5]
  Ki: 3 ± 1 µM
Cruzain [2]; 25° C.
  kinact/KI: 1700 ± 500 M⁻¹ s⁻¹

## C[n+]1ccc(/C=C/[C@H](Cc2ccccc2)NC(=O)[C@H](Cc2ccccc2)NC(=O)OCc2ccccc2)cc1 [Compound 22, 4-((S,E)-3-((S)-2-(((Benzyloxy)carbonyl)amino)-3-phenylpropanamido)-4-phenylbut-1-en-1-yl)-1-methylpyridin-1-ium Iodide]
Cruzain [2]; [5]
  Ki: 92 ± 5 µM
Cruzain [2]; [3]
  Ki: 4 ± 0.1 µM

## O=C(N[C@@H](Cc1ccccc1)C(=O)N[C@H](CO)Cc1ccccc1O)OCc1ccccc1 [Compound 51]
Cruzain [2]; [4]
  Ki: > 10 µM

## Cc1cc(=O)oc2cc(NC(=O)C(CCc3ccccc3)NC(=O)C(Cc3ccccc3)NC(=O)N3CCN(C)CC3)ccc12 (stereo not drawn) [Compound S7, NMePip-Phe-hPhe-AMC]
Cruzain [1]
  Km: 3.1 ± 0.3 µM
  kcat: 4.0 ± 0.1 s⁻¹
  kcat/Km: 1.3e+06 M⁻¹ s⁻¹ and 1.3e+06 ± 100000 M⁻¹ s⁻¹
  kcat rel: 0.42
